The results in this text go back to US11220524B2, “Selective inhibitors of protein arginine methyltransferase 5 (PRMT5)” (PRELUDE THERAPEUTICS, INCORPORATED, priority 2017, dated 2022).

Data set [1] deals with sDMA in Granta-519 tumors. Briefly: In vivo pharmacodynamic effect: sDMA levels in tumor samples of Granta-519 mouse xenograft model. To be noted: 30 mg/kg, separate experiment. Here is the method:
(§1) In Vivo Pharmacodynamic Effect of Example 36 in Granta-519 Mouse Xenograft Model.
(§2) Granta-519 cells was maintained in DMEM medium supplemented with 10% fetal bovine serum and 2 mM L-Glutamine at 37° C. in an atmosphere of 5% C02 in air. Cells in exponential growth phase were harvested and 1×10^7 cells in 0.1 mL of PBS with Matrigel (1:1) were injected subcutaneously at the right lower flank region of each mouse for tumor development. The treatments were started when the mean tumor size reaches approximately 300-400 mm^3. […] Example 36 or vehicle (0.5% methylcellulose+0.1% Tween 80) were administered orally (BID for Example 36, QD for vehicle) at a dose of 25 mg/kg for 6 days. Body weights and tumor size were measured thrice weekly after randomization. Animals were euthanized 4 hours after last dosing on day 6, and blood and tumor samples were collected for analysis.
To measure sDMA levels in tumor samples, tumors from each mouse were weighted and homogenized in RIPA buffer supplemented with protease inhibitor (cOmplete™, EDTA-free Protease Inhibitor Cocktail, Roche). […] Total protein concentrations of lysate were determined by BCA assay (ThermoFisher Scientific, Catalog #: 23225). Equal amount of total proteins from each tumor were separated on SDS-PAGE gel, and sDMA levels were determined by WB as described previously. […]

The target in data set [2] is PRMT5/MEP50 complex (Homo sapiens (Human), UniProt O14744). Briefly: Biochemical assay: PRMT5/MEP50 methylation of histone H2A with 3H-SAM, filter plate scintillation. The settings on record: biochemical potency; read-out: PRTMT5/MEP50 IC50. Put shortly:
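5 nM PRMT5/MEP50 preincubated with compound 15–20 min at room temperature, with 5 μM histone H2A as substrate; reaction started with 1 μM 3H-SAM and run 60 min at 30 °C. TCA-stopped, filter-captured methylation counted by scintillation; IC50 from 4-parameter Hill fit.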

The subject of data set [3] is Granta-519 cells. Put plainly: Cell proliferation assay on Granta-519 cells (CCK-8, day 10). The class given is cell-based. The settings on record: Homo sapiens, Granta-519, 240 h, Granta cell line, read-out: Prolif. IC50. How it is done: Cell Proliferation Assay to Determine IC50 on Granta-519 Cells
Granta-519 cells were maintained in PRMI 1640 (Corning Cellgro, Catalog #: 10-040-CV) medium supplemented with 10% v/v FBS (GE Healthcare, Catalog #: SH30910.03). Compounds were dissolved in DMSO to make 10 mM stocks and stored at −20° C. Nine-point, 3-fold serial dilutions were made with DMSO with top concentration at 1 mM (working stocks).
On day of experiment, compound working stocks were further diluted at 1:50 with fresh medium in 96 well plate, and 10 μL of diluted drugs were added to a new 96 well plate for proliferation assay. Cells growing at exponential phase were spun down at 1500 rpm for 4 min and resuspend in fresh medium to reach a density of 0.5×10^6 cells/ml. 200 ul of cells were added to 96 well plate containing diluted drugs and incubated for 3 days. DMSO was used a vehicle control.
One day 3, 10 μL of Cell Counting Kit-8 (CCK-8, Jojindo, CK04-13) solution was added to a new 96 well plate. Cells incubated with drugs for 3 days were resuspended by pipetting up and down, and 100 μL of cells were transferred to 96 well plate containing CCK-8 reagent to measure viable cells. Plates were incubated in C02 incubator for 2 hours and OD450 values were measured with a microplate reader (iMark microplate reader, Bio-Rad).
For re-plating, compound working stocks were diluted at 1:50 with fresh medium and 10 μL of diluted drugs were added to anew 96 well plate. Cells from Day 3plate (50 ul) were added to 96 well plate containing fresh drug and additional 150 of fresh medium was added to reach 200 ul volume. Plate was returned to CO2incubator and incubated for 3more days. Viable cells measurement and re-plating were repeated on day 6, and the final viable cells measurement was taken on day 10.
Percentage of viable cells, relative to DMSO vehicle control, were calculated and plotted in Graphpad Prism ([Inhibitor] vs. normalized response-Variable slope) to determine proliferation IC50 values on day 10.

Data set [4] can be described thus: In vivo pharmacokinetic study in rat (i.v. and p.o.). The settings on record: rat. How it is done: In Vivo Pharmacokinetic Properties of Example 36.
In a rat (SD, male, non-fasted) non-crossover cassette PK study, Example 36 was dosed at 0.25 mg/kg via i.v. administration (N=3) and 2 mg/kg via oral gauge (p.o.) (N=3) with other 3 compounds.
In Vivo Pharmacokinetic Properties of Example 92.
In a rat (SD, male, non-fasted) non-crossover PK study, Example 92 was dosed at 1 mg/kg (DMA: 20% HPBCD=5:95, solution) via i.v. administration (N=2) and 1 mg/kg (0.5% Na CMC+0.5% Tween80, solution) via oral gauge (p.o.) (N=2).

Data set [5] concerns Symmetric Di-Methyl Arginine (sDMA) in Granta-519 cells. Briefly: Western blot for symmetric di-methyl arginine (sDMA) marks in Granta cells, 3 days treatment. To be noted: Homo sapiens, Granta-519, 72 h; Granta cell line, 3 days. The class given is cell-based.
Data set [6] relates to Granta-519 mouse xenograft. Briefly: Tumor growth inhibition and body weight in Granta-519 mouse xenograft model. The class given is in vivo. How it is done: as §1, §2
Example 92 or vehicle (0.5% Na CMC+0.5% Tween80, suspension) were administered orally (QD for Example 92, QD for vehicle) at a dose of 50 mg/kg for 14 days. Body weights and tumor size were measured every 3 to 4 days after randomization. Animals were euthanized 4 hours after last dosing, and blood and tumor samples were collected for analysis.

Sequence of PRMT5/MEP50 complex (O14744 whole entry): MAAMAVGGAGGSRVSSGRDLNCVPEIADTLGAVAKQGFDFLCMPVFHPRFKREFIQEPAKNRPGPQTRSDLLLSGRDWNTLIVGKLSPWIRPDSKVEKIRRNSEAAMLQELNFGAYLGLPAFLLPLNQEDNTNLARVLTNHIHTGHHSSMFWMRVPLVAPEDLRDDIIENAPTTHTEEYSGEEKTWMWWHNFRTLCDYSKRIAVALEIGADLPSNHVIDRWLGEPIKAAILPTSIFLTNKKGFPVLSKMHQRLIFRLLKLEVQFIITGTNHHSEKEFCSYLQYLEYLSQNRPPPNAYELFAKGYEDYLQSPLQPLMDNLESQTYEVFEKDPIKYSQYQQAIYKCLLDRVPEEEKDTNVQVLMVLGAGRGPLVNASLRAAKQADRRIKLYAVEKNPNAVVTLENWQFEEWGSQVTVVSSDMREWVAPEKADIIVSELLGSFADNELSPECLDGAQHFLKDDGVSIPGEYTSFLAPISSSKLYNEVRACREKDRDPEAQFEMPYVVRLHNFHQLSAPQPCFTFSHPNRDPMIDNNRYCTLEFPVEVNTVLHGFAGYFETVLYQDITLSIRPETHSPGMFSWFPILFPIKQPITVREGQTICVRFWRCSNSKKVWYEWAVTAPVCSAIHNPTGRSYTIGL
Sequence of PRMT5/MEP50 complex (Q9BQA1 whole entry partner): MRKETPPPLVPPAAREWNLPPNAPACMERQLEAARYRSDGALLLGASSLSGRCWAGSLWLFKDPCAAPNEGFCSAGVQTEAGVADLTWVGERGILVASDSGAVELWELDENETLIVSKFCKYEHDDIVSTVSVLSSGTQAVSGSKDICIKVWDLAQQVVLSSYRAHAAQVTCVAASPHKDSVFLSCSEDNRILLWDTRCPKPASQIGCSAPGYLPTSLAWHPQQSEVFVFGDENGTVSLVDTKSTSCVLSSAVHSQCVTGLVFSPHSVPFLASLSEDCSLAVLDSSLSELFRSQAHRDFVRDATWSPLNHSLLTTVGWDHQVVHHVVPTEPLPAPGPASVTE

Regarding `C[C@@](O)(c1ccc(Cl)c(Cl)c1)[C@H]1O[C@@H](n2cnc3c(N)ncnc32)[C@H](O)[C@@H]1O` [Example 1-C, (2R,3R,4S,5S)-2-(6-amino-9H-purin-9-yl)-5-((R)-1-(3,4-dichlorophenyl)-1-hydroxyethyl)tetrahydrofuran-3,4-diol], the “sDMA in tumor samples” value in data set [1] is “no detectable amount of sDMA”. Also, the IC50 in data set [2] stood at 3.6 nM; in data set [3] it was 44 nM; in data set [5], 8.2 nM. The “metabolite detection in blood samples” value in data set [4] (after dosing of Example 92 at 1 mg/kg) is recorded as “detected in blood samples”. In addition, in data set [4] (metabolite after dosing of Example 92 at 1 mg/kg), the AUC0-inf of metabolite stood at 284 ng·kg·h/mL/mg. Moreover, in data set [6] (30 mg/kg, separate experiment), the body weight gain turned out to be 6%. The tumor growth inhibition in data set [6] (30 mg/kg, separate experiment, N=5) is listed as 61%. In addition, the “metabolite detection in blood and tumor samples” value in data set [6] (mouse xenograft, after Example 92 at 50 mg/kg QD for 14 days) is “detected in all blood and tumor samples”.
